As a reminder, the Papp A→B is how fast a substance crosses the layer from the apical side. Higher therefore signals ready permeation.

A short description of data set [1]: Unidirectional Caco-2 cell permeability assay. It is filed as in vitro ADME. Particulars: human, apical pH 6.5, basolateral pH 7.4, 1 hour, 37° C., n=2. As for the experimental part:
Caco-2 cells (ECACC) were seeded onto 24-well Transwell plates at 2×10^5 cells per well and used in confluent monolayers after a 21 day culture at 37° C. under 500 CO2. Test compounds were incubated at 10 μM, 0.2% DMSO final, n=2 in assay buffer (Hanks balanced salt solution supplemented with 25 mM HEPES, adjusted to pH 6.5). Hanks balanced salt solution supplemented with 25 mM HEPES, adjusted to pH 7.4 (0.2% DMSO final) was used for the basolateral chamber (as receiver).
Incubations were performed at 37° C., with samples removed from both donor and acceptor chambers at T=0 and 1 hour and compound analysed by mass spectrometry (LC-MS/MS) including an analytical internal standard ([…] carbamazepine).
Apparent permeability (Papp) values are shown in Table 3 and were determined from the relationship:
Where V is the volume of each Transwell compartment (apical 125 μL, basolateral 600 μL), and concentrations are the relative MS responses for compound (normalized to internal standard) in the donor chamber before incubation and acceptor chamber at the end of the incubation Area=area of cells exposed for drug transfer (0.33 cm^2).
Lucifer Yellow (LY) was added to the apical buffer in all wells to assess viability of the cell layer. As LY cannot freely permeate lipophilic barriers, a high degree of LY transport indicates poor integrity of the cell layer and wells with a LY Papp>10×10^−6 cm/s were rejected.
Compound recovery from the wells was determined from MS responses (normalized to internal standard) in donor and acceptor chambers at the end of incubation compared to response in the donor chamber pre-incubation.
On the technique in general: Caco-2 monolayers are a common model of the intestinal barrier.

A further data set concerns the target T1, human EP4 (Homo sapiens, UniProt P35408).
T1 construct: expressed in transfected cells; host or cells: HEK293 cells transduced with EP4 BacMam baculovirus
Description: cAMP Gs functional assay (HTRF cAMP dynamic-2) in EP4-transfected HEK293 cells. It counts as cell-based. Particulars: HEK293 cells transfected with EP4 BacMam virus; for EC50: 30 min at 37° C., HTRF cAMP, read-out: cAMP human EP4 pEC50 (converted); for cAMP human EP4 Emax: positive control PGE2. On the procedure: Cloning, Baculovirus generation, large scale infection of HEK293 cells and membrane preparation: Human prostaglandin E2 receptor 4 (EP4) was cloned into pBacMam expression vector (GeneScript, UK). Transposition of EP4 DNA was performed using Invitrogen's Bac-to-Bac Baculovirus Expression Systems. P0 baculovirus was generated by transfecting SF9 Cells with bacmid DNA using Cellfectin II transfection reagent (ThermoFisher Scientific, UK). Following P0 generation P1 virus was then generated ready for large scale infection and membrane preparation. HEK293 cells were grown in DMEM (ThermoFisher Scientific, UK), supplemented with 10% heat inactivated fetal bovine serum (FBS). Cells were infected at a seeding density of 3.5 million cells/mL in 500 cm^3 flasks at 5% v/v EP4 Bacman. Expression was carried out over a 36 hour period at 37° C. with 5% CO2. The cells were removed using PBS and a cell scrapper. The cell culture was centrifuged at 2500 RPM for 10 mins at 4° C. The supernatant was then poured off and the pellet stored at −80° C. The pellet was defrosted and re-suspended in 15 mL of homogenising buffer (20 mM HEPES, 10 mM EDTA, pH 7.4). Then homogenised in mechanical homogeniser (VMR) for 10 seconds. The membrane was centrifuged in centrifuge tubes at 40,000 g for 15 mins at 4° C. The supernatant was poured away and re-suspended in 15 mL of homogenising buffer and homogenised for 20 seconds. The membrane was then centrifuged at 40,000 g for 45 mins at 4° C. The membrane was then re-suspended in 3 mL of storage buffer (20 mM HEPES, 0.1 mM EDTA, pH 7.4) mixing well. The resulting membranes were then stored at −80° C.
cAMP Gs Functional Assay: cAMP production following EP4 receptor activation was determined using the Homogeneous Time-Resolved Fluorescence (HTRF) cAMP dynamic-2 assay (Cisbio, France). HEK293 cells were transfected using a 0.5% EP4 Bacman virus for 36 hours, before dissociating the cells, and freezing at −150° C.
On the day of testing, increasing concentration of test compounds, alongside positive controls ([…] PGE2 (Tocris, Abingdon, UK)) and negative control (DMSO (Sigma-Aldrich, UK) were added to a ProxiPlate-384 Plus, White 384-shallow well Mircoplate, (PerkinElmer, USA) using the ECHO dispense.
Cells were defrosted in a water bath and resuspended in DMEM supplemented with 10% FBS before centrifuging at 1200 RPM for 5 mins to form a pellet. The pellet was resuspended in assay buffer (DMEM+0.5 mM IBMX (Tocris, Abingdon, UK)) to 0.5×10^6 cells/mL. Cell suspension, for a final assay concentration of 5000 cell/well was added using the multidrop to the pre-dispensed assay plate. The plate was then incubated at 37° C. for 30 mins, with 5% CO2. The cAMP production was determined as manufacturer's instructions, before plates were read on a PheraStar fluorescence plate reader (BMG LabTech, Germany).
In general terms: TR-FRET usually uses a lanthanide donor and a delayed reading to cut background.

T1 sequence (P35408 whole entry): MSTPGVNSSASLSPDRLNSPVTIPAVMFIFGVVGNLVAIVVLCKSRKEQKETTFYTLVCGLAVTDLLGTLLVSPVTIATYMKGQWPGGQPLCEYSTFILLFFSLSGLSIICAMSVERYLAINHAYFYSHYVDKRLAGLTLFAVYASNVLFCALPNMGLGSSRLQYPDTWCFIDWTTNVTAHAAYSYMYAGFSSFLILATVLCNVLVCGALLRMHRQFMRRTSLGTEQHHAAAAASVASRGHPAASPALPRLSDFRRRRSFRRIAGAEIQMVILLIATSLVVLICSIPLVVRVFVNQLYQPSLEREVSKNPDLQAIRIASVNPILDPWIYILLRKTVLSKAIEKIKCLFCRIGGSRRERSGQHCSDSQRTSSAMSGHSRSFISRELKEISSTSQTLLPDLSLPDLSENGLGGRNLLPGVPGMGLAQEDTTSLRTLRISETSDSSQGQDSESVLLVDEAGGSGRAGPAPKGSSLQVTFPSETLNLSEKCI

Take `Cc1cc(O)ccc1-c1cccc(CN2CCC[C@@H]2C(=O)N[C@@H](C)c2ccc(C(=O)O)cc2)c1` [Example 1]: the Papp A→B at 1 h, 10 μM in data set [1] was determined as 14.5 ×10⁻⁶ cm/s. Moreover, on human EP4, the EC50 is 2 nM and the cAMP human EP4 Emax is 81%.
The like results for `Cc1cc(S(N)(=O)=O)ccc1-c1cccc(CN2CCC[C@@H]2C(=O)N[C@@H](C)c2ccc(C(=O)O)cc2)c1` [Example 2, 4-((S)-1-((R)-1-((2′-methyl-4′-sulfamoyl-[1,1′-biphenyl]-3-yl)methyl)pyrrolidine-2-carboxamido)ethyl)benzoic acid] were, in that order, 1.14 ×10⁻⁶ cm/s, 1.58 nM and 99%.
With `Cc1cc(C(N)=O)ccc1-c1cccc(CN2CCC[C@@H]2C(=O)N[C@@H](C)c2ccc(C(=O)O)cc2)c1` [Example 3, 4-((S)-1-((R)-1-((4′-carbamoyl-2′-methyl-[1,1′-biphenyl]-3-yl)methyl)pyrrolidine-2-carboxamido)ethyl)benzoic acid], in data set [1], the apparent permeability from apical to basolateral (Papp A→B) at 1 h, 10 μM was 1.18 ×10⁻⁶ cm/s. For the same compound, at human EP4, the EC50 is 12.6 nM and the cAMP human EP4 Emax came to 100%.
In the case of `Cc1cc(S(N)(=O)=O)ccc1-c1cccc(CN2C[C@H](O)C[C@@H]2C(=O)N[C@@H](C)c2ccc(C(=O)O)cc2)c1` [Example 4, 4-((S)-1-((2R,4R)-4-hydroxy-1-((2′-methyl-4′-sulfamoyl-[1,1′-biphenyl]-3-yl)methyl)pyrrolidine-2-carboxamido)ethyl)benzoic acid], in data set [1], the Papp A→B at 1 h, 10 μM came out at 0.26 ×10⁻⁶ cm/s. Further, at human EP4, the EC50 is 158 nM and the cAMP human EP4 Emax stood at 98%.
In turn, `Cc1cc(O)ccc1-c1cccc(CN2C[C@H](O)C[C@@H]2C(=O)N[C@@H](C)c2ccc(C(=O)O)cc2)c1` [Example 5, 4-((S)-1-((2R,4R)-4-hydroxy-1-((4′-hydroxy-2′-methyl-[1,1′-biphenyl]-3-yl)methyl)pyrrolidine-2-carboxamido)ethyl)benzoic acid] registered a Papp A→B at 1 h, 10 μM in data set [1] of 0.36 ×10⁻⁶ cm/s. Besides, on human EP4, the EC50 was 63.1 nM and the cAMP human EP4 Emax amounted to 80%.
`Cc1cc(C(N)=O)ccc1-c1cccc(CN2C[C@H](O)C[C@@H]2C(=O)N[C@@H](C)c2ccc(C(=O)O)cc2)c1` [Example 6, 4-((S)-1-((2R,4R)-1-((4′-carbamoyl-2′-methyl-[1,1′-biphenyl]-3-yl)methyl)-4-hydroxypyrrolidine-2-carboxamido)ethyl)benzoic acid]: the Papp A→B at 1 h, 10 μM in data set [1] was 0.85 ×10⁻⁶ cm/s. Further, on human EP4, the EC50 is 501 nM and the cAMP human EP4 Emax came to 91%.
With `C[C@H](NC(=O)[C@H]1CCCN1Cc1cccc(-c2ccc(O)cc2)c1)c1ccc(C(=O)O)cc1` [Example 7, 4-((S)-1-((R)-1-((4′-hydroxy-[1,1′-biphenyl]-3-yl)methyl)pyrrolidine-2-carboxamido)ethyl)benzoic acid], in data set [1], the Papp A→B at 1 h, 10 μM is 7.71 ×10⁻⁶ cm/s. Further, the EC50 on human EP4 was more than 10000 nM.
The compound `C[C@H](NC(=O)[C@H]1CCCN1Cc1cccc(-c2ccc(O)cc2C#N)c1)c1ccc(C(=O)O)cc1` [Example 8, 4-((S)-1-((R)-1-((2′-cyano-4′-hydroxy-[1,1′-biphenyl]-3-yl)methyl)pyrrolidine-2-carboxamido)ethyl)benzoic acid] had a Papp A→B at 1 h, 10 μM in data set [1] of 2.1 ×10⁻⁶ cm/s. At human EP4, the EC50 is 31.6 nM and the cAMP human EP4 Emax is 74%.
In data set [1], `Cc1cc(C(=O)O)ccc1-c1cccc(CN2CCC[C@@H]2C(=O)N[C@@H](C)c2ccc(C(=O)O)cc2)c1` [Example 9, 3′-(((R)-2-(((S)-1-(4-carboxyphenyl)ethyl)carbamoyl)pyrrolidin-1-yl)methyl)-2-methyl-[1,1′-biphenyl]-4-carboxylic acid] came in with an apparent permeability from apical to basolateral (Papp A→B) at 1 h, 10 μM of 0.33 ×10⁻⁶ cm/s. At human EP4, the EC50 is 200 nM and the cAMP human EP4 Emax amounted to 96%.
In data set [1], `Cc1cc(OS(N)(=O)=O)ccc1-c1cccc(CN2CCC[C@@H]2C(=O)N[C@@H](C)c2ccc(C(=O)O)cc2)c1` [Example 10] gave a Papp A→B at 1 h, 10 μM of 1.84 ×10⁻⁶ cm/s. Besides, at human EP4, the EC50 is 2 nM and the cAMP human EP4 Emax is 96%.
Regarding `C[C@H](NC(=O)[C@H]1CCCN1Cc1cccc(-c2ccc(C(N)=O)cc2O)c1)c1ccc(C(=O)O)cc1` [Example 11, 4-((S)-1-((R)-1-((4′-carbamoyl-2′-hydroxy-[1,1′-biphenyl]-3-yl)methyl)pyrrolidine-2-carboxamido)ethyl)benzoic acid], the Papp A→B at 1 h, 10 μM in data set [1] amounted to 0.18 ×10⁻⁶ cm/s. On human EP4, the EC50 was 20 nM and the cAMP human EP4 Emax worked out at 92%.
The like results for `C[C@H](NC(=O)[C@H]1CCCN1Cc1ccc(O)c(-c2ccc(C(N)=O)cc2)c1)c1ccc(C(=O)O)cc1` [Example 12, 4-((S)-1-((R)-1-((4′-carbamoyl-6-hydroxy-[1,1′-biphenyl]-3-yl)methyl)pyrrolidine-2-carboxamido)ethyl)benzoic acid] were, in that order, 0.26 ×10⁻⁶ cm/s, 7.94 nM and 89%.
The like results for `Cc1cc(C(N)=O)ccc1-c1cc(O)cc(CN2CCC[C@@H]2C(=O)N[C@@H](C)c2ccc(C(=O)O)cc2)c1` [Example 13] were, in that order, 0.34 ×10⁻⁶ cm/s, 0.251 nM and 99%.
The like results for `Cc1cc(C(N)=O)ccc1-c1cc(CN2CCC[C@@H]2C(=O)N[C@@H](C)c2ccc(C(=O)O)cc2)ccc1O` [Example 14] were, in that order, 0.19 ×10⁻⁶ cm/s, 158 nM and 100%.
As to `Cc1cc(C(N)=O)ccc1-c1cccc(CN2CCC[C@@H]2C(=O)N[C@@H](C)c2ccc(C(=O)O)c(O)c2)c1` [Example 17, 4-((S)-1-((R)-1-((4′-carbamoyl-2′-methyl-[1,1′-biphenyl]-3-yl)methyl)pyrrolidine-2-carboxamido)ethyl)-2-hydroxybenzoic acid], on human EP4, the EC50 was 63.1 nM and the cAMP human EP4 Emax came out at 97%.
On the same counts, the results for `Cc1cc(C(N)=O)ccc1-c1cncc(CN2C[C@H](O)C[C@@H]2C(=O)N[C@@H](C)c2ccc(C(=O)O)cc2)c1` [Example 25, 4-((S)-1-((2R,4R)-1-((5-(4-carbamoyl-2-methylphenyl)pyridin-3-yl)methyl)-4-hydroxypyrrolidine-2-carboxamido)ethyl)benzoic acid] are 1260 nM and 91%.
For the compound `Cc1cc(C(N)=O)ccc1-c1cc(CN2CCC[C@@H]2C(=O)N[C@@H](C)c2ccc(C(=O)O)cc2)c[n+]([O-])c1` [Example 26, 3-(4-carbamoyl-2-methylphenyl)-5-(((R)-2-(((S)-1-(4-carboxyphenyl)ethyl)carbamoyl)pyrrolidin-1-yl)methyl)pyridine 1-oxide], on human EP4, the EC50 is more than 1000 nM.
Regarding `Cc1cc(S(N)(=O)=O)ccc1-c1cccc(CN2CC3CC2(C(=O)N[C@@H](C)c2ccc(C(=O)O)cc2)C3)c1` [Example 32, (S)-4-(1-(2-((2′-methyl-4′-sulfamoyl-[1,1′-biphenyl]-3-yl)methyl)-2-azabicyclo[2.1.1]hexane-1-carboxamido)ethyl)benzoic acid], at human EP4, the EC50 is 0.398 nM and the cAMP human EP4 Emax turned out to be 90%.

These data come from patent publication US20260042745A1, “PYRROLIDINE-2-CARBOXAMIDE DERIVATIVES AS PROSTAGLANDIN E2 RECEPTOR 4 (EP4) AGONISTS FOR THE TREATMENT OF GASTROINTESTINAL AND PULMONARY DISEASES” (NXERA PHARMA UK LIMITED, priority 2022, published 2026).
